Entries after “also recorded” stand apart in the source; their conditions may differ. Read-outs that look alike come from different tables or passages of the source. Non-standard residues stand in square brackets, D forms with d. Residues, ends and D or L forms follow the SMILES beside them. pGlu = O=C1CC[C@@H](C(=O)O)N1
What was measured:
[1] = biological target: GnRH binding sites (normal rat liver); test: GnRH in vitro binding to normal rat liver membrane preparation; conditions: 95% confidence interval in parentheses, read-out: Receptor Binding Activity (Kd, nM) Normal Rat Liver
Experimental: (§1) Cells were grown to confluence as previously described and harvested from the flasks by using a rubber policeman. The cells were washed in normal assay buffer (([…] Tris[hydroxymethyl] aminomethane[Tris]-HCl), containing 1 mM dithiothreitol and 0.5% BSA [fraction-V] (pH 7.6)) and precipitated by centrifugation at 500g for 5 minutes at 4° C.
(§2) The cleaned cells were homogenized in 50 ml of freshly prepared ice cold 25 mM sucrose in assay buffer containing 1 mM Phenylmethanesulphonyl fluoride and 5 mM Ethylenediaminetetraacetic acid, using a glass TEFLON (polytetra-fluoroethylene) homogenizer, followed by centrifugation at 100 ×g for 5 minutes (4° C.). The supernatant was further centrifuged at 17,000×g for 30 minutes at 4° C., and the pellet (crude membrane preparation) washed briefly and resuspended in the assay buffer (approximately 40-50 μg membrane protein or approximately 1 x 10^6 cell equivalent per 100 μl).
(§3) A similar protocol was used to prepare the membrane from fresh rat and frozen human postmortem liver. In all experiments the final membrane preparation was used in the radioreceptor assay within 45 minutes.
(§4) For protein determination, aliquots of crude membrane preparations were washed twice with double distilled water by centrifugation (25,000 ×g) and assayed for protein content, using BSA as the standard. The binding assay was carried out at 4° C.
(§5) The displacement curves were fitted for both single and two classes of binding sites by computer calculated lines, as described.

[2] = biological target: GnRH receptor (HepG2 membrane preparation); test: GnRH in vitro binding to HepG2 membrane preparation (radioreceptor assay); set-up: species or system human; conditions: for Kd: 95% confidence interval in parentheses; for Displacement / competitive inhibition of labeled [D-Lys6]-GnRH binding to HepG2 membrane preparation: unlabeled non-GnRH peptides, FIG. 2B
Experimental: as §1, §2, §4, §5
(§6) The potency of various GnRH-related peptides in terms of binding (equilibrium dissociation constant; kd) and growth suppression activity in the human hepatocarcinoma derived cell line HepG2 was studied. […] Data analysis was performed as described.
(§7) Homologous displacement of GnRH-related peptides in membrane homogenates prepared from HepG2 cells and non-cancerous postmortem human liver tissue was studied. Values (mean ± SEM) represent specific binding [B/T, bound over total, in %] determined by subtraction of non-saturable binding in the presence of excess peptides (10^-5 M). Results were obtained from 5 to 7 separated experiments, each carried out in triplicate. The binding data were analyzed by computerized Scatchard analysis (LIGAND) according to Munson and Rodbard.

HepG2 cells = test: HepG2 cell proliferation (cell counting); format: cell-based; conditions: for Effect on HepG2 cell proliferation: single administration at 10^-7 M, six days in culture
Experimental: HepG2 or HuH-7 cells were maintained in 75-cm^2 flasks at 37° C. under a humidified atmosphere of 5% CO2 in modified Minimum Essential Medium (Gibco-BRL) supplemented with 10% fetal bovine serum, 200mM 1-Glutamine (1%), Penicillin (1000 IU/ml), streptomycin (100 μg/ml) and sodium bicarbonate (0.15%). Cells grown to confluence were harvested following mild trypsinization and wash (twice by slow centrifugation; 400 g for 10 minutes) in normal culture medium.
Approximately 50,000 cells in 1.0 ml culture media were plated in 24 deep well plates (Flacon). This time was considered day -1. Cells were allowed to grow for one day. The growing cells were then treated with various hormones (at day 0) prepared aseptically in culture media immediately prior to addition. The final volume was maintained at 1 ml. The plates were then incubated at 37° C. for a period of 4 to 6 days, as described above.
Cells in each well were harvested by removal of culture media and incubation with 0.5 ml 0.25% trypsin and 1.75 mM EDTA for 30 minutes at 37° C. Cells were then transferred into 1.5 ml microfuge tubes and centrifuged at 100g for 10 minutes. The supernatant was removed and the pellet was resuspended in a final volume of 200 μl of culture media containing 10% trypan blue.
Cells were then counted using a hemocytometer. The average cell mortality was less than 5.0% and was not different among different treatment groups. Each value represents the mean and standard error of several experiments (n>3), each carried out in quadruplicate incubations at each time point and hormone concentration.
as §6
The effect of GnRH-related peptides on the proliferation of the human hepatoma derived cell line HepG2 was studied. Values (mean ± SEM) represent the percent change with respect to initial cell number at day 0 over a period of six days in culture.
The dose response curves were analyzed by a computerized, four parameter curve fitting program (ALLFIT) as described. The result of time-related response on cell proliferation was analyzed using a two-way ANOVA with multiple comparison means of using computerized statistical package (SYSTAT).

[3] = test system: GnRH binding sites (normal human liver); test: GnRH in vitro binding to non-cancerous postmortem human liver membrane preparation; conditions: for Displacement / competitive inhibition of labeled [D-Lys6]-GnRH binding to non-cancerous human liver membrane preparation: unlabeled non-GnRH peptides, FIG. 2D; for Kd: 95% confidence interval in parentheses, read-out: Receptor Binding Activity (Kd, nM) Normal Human Liver
Experimental: as §1, §2, §3, §4, §5, §7

[4] = biological target: T1, normal pituitary cell GnRH receptors (Rattus norvegicus, UniProt P30969); test: GnRH binding, normal rat pituitary; conditions: 95% confidence interval in parentheses, read-out: Receptor Binding Activity (Kd, nM) Normal Rat
T1 construct: normal pituitary cell GnRH receptors; from tissue; host or cells: normal rat pituitary
T1 sequence (P30969 1-327): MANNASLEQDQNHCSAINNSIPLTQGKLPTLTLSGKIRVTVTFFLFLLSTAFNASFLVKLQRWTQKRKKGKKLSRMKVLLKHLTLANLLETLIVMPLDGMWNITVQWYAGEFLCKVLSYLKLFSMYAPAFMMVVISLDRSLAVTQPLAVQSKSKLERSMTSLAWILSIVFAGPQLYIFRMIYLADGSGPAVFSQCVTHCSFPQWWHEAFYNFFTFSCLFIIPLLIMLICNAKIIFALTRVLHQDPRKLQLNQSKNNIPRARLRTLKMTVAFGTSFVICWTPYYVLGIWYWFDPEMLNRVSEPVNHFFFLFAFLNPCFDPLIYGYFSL
Experimental: as §5
Data analysis was performed as described.

mammalian pituitary = conditions: reference [11]; cited from earlier work
[5] = Labeled ligand 125I-[D-Lys6]-GnRH
[6] = Labeled ligand 125I-[D-Lys6]-GnRH, 4° C.
[7] = Labeled ligand 125I-[D-Arg6]-sGnRH-A

Compound | Kd [1, 5] | Kd [2, 6] | Displacement / competitive inhibition of labeled [D-Lys6]-GnRH binding to non-cancerous human liver membrane preparation [3] | Kd [4, 5] | Effect on HepG2 cell proliferation (HepG2 cells) | Displacement / competitive inhibition of labeled [D-Lys6]-GnRH binding to HepG2 membrane preparation [2] | Suppression of HepG2 growth ED50 (HepG2 cells) | further results
CC(C)C[C@H](NC(=O)CNC(=O)[C@H](Cc1ccc(O)cc1)NC(=O)[C@H](CO)NC(=O)[C@H](Cc1c[nH]c2ccccc12)NC(=O)[C@H](Cc1c[nH]cn1)NC(=O)[C@@H]1CCC(=O)N1)C(=O)N[C@@H](CCCNC(=N)N)C(=O)N1CCC[C@H]1C(=O)NCC(N)=O [GnRH, reference compound] | 384 nM | 9.17 nM |  |  | suppressed |  |  | 
NC(=O)[C@@H]1CCCN1C(=O)[C@H](Cc1cnc[nH]1)NC(=O)[C@@H]1CCC(=O)N1 [TRH, Thyrotropin releasing hormone] |  |  | did not displace |  |  | did not show competitive inhibition |  | Displacement / competitive inhibition of labeled [D-Lys6]-GnRH binding to HepG2 membrane preparation ([2]; listed as Thyrotropin releasing hormone (TRH)): did not displace
CCNC(=O)[C@@H]1CCCN1C(=O)[C@H](CC(C)C)NC(=O)[C@H](Cc1c[nH]c2ccccc12)NC(=O)[C@@H](CCCNC(=N)N)NC(=O)[C@H](Cc1ccc(O)cc1)NC(=O)[C@H](CO)NC(=O)[C@H](Cc1c[nH]c2ccccc12)NC(=O)[C@H](Cc1c[nH]cn1)NC(=O)[C@@H]1CCC(=O)N1 [[D-Arg^6]-sGnRH-A, pGlu-His-Trp-Ser-Tyr-DArg-Trp-Leu-Pro-N-ethylamide] ([pGlu]HWSY[dR]WLP-NHEt) |  |  |  |  |  |  |  | Kd [3, 7]: 3850 nM; Kd [1, 7]: 833 nM; Kd [2, 7]: 7.09 nM; Kd [4, 7]: 0.334 nM
Met Enkephalin [Met-Enkephalin] |  |  | did not displace |  |  | did not show competitive inhibition |  | Displacement / competitive inhibition of labeled [D-Lys6]-GnRH binding to HepG2 membrane preparation ([2]; listed as Met Enkephalin): did not displace

Second part, led by results:

Kd [1, 5] | Kd [2, 6] | Displacement / competitive inhibition of labeled [D-Lys6]-GnRH binding to non-cancerous human liver membrane preparation [3] | Kd [4, 5] | Compound | Effect on HepG2 cell proliferation (HepG2 cells) | Displacement / competitive inhibition of labeled [D-Lys6]-GnRH binding to HepG2 membrane preparation [2] | Suppression of HepG2 growth ED50 (HepG2 cells) | further results
8330 nM | 17.9 nM |  | 140 nM | CC(C)C[C@H](NC(=O)CNC(=O)[C@H](Cc1c[nH]cn1)NC(=O)[C@H](CO)NC(=O)[C@H](Cc1c[nH]c2ccccc12)NC(=O)[C@H](Cc1c[nH]cn1)NC(=O)[C@@H]1CCC(=O)N1)C(=O)N[C@@H](CC(N)=O)C(=O)N1CCC[C@H]1C(=O)NCC(N)=O [cfGnRH] ([pGlu]HWSHGLNPG-NH2) | suppressed |  | 2.29 nM | 
8330 nM | 66.6 nM |  | 2 nM | CC(C)C[C@H](NC(=O)[C@H](CO)NC(=O)[C@H](Cc1ccc(O)cc1)NC(=O)[C@H](Cc1c[nH]cn1)NC(=O)[C@@H]1CCC(=O)N1)C(=O)N[C@@H](CCC(=O)O)C(=O)N[C@@H](Cc1c[nH]c2ccccc12)C(=O)N[C@@H](CCCCN)C(=O)N1CCC[C@H]1C(=O)NCC(N)=O [lGnRH] ([pGlu]HYSLEWKPG-NH2) | suppressed |  | 1.5 nM | Gonadotropin release activity in rat and sheep pituitary (mammalian pituitary): little; Potency in releasing gonadotropin from mammalian pituitary compared to mammalian based GnRH analogs (mammalian pituitary): significantly lower potency; Kd [3, 5]: 6660 nM
1560 nM |  |  | 179 nM | CC(C)C[C@H](NC(=O)[C@H](Cc1c[nH]c2ccccc12)NC(=O)CNC(=O)[C@H](Cc1ccc(O)cc1)NC(=O)[C@H](CO)NC(=O)[C@H](Cc1c[nH]c2ccccc12)NC(=O)[C@H](Cc1c[nH]cn1)NC(=O)[C@@H]1CCC(=O)N1)C(=O)N1CCC[C@H]1C(=O)NCC(N)=O [sGnRH] ([pGlu]HWSYGWLPG-NH2) | suppressed |  | 7.55 nM | Potency in releasing gonadotropin from mammalian pituitary compared to mammalian based GnRH analogs (mammalian pituitary): significantly lower potency; Kd [3, 5]: 7140 nM
 |  | did not displace |  | α-melanocyte stimulating hormone [α-MSH, reference compound] | lack of effect; also recorded: did not | did not displace; also recorded: did not show competitive inhibition |  | 

— patent publication US5760000A (University Technologies International,Inc., priority 1994, dated 1998)
